The target in one data set is CYP26A1 (Homo sapiens (Human), UniProt O43174). Description: CYP26A1 inhibition assay (9-cis-4-OH-RA formation from 9-cis-RA, recombinant microsomes). The following applies: for CYP26A1/CYP26B1: ratio of IC50 values, Table 2; for inhibition at 100 µM: read-out: Maximum inhibition of CYP26A1 observed. It is filed as biochemical.
In data set [1] the target is T1, CYP26B1 (Homo sapiens (Human), UniProt Q9NR63). The experiment in a line: CYP26B1 inhibition assay (9-cis-4-OH-RA formation from 9-cis-RA, recombinant microsomes). It is filed as biochemical.
Experimental: (§1) CYP26A1 and CYP26B1 were expressed in Sf9 cells and used as microsomal fractions supplemented with rat P450 reductase expressed in Escherichia coli as described previously. Incubations were performed with 5 pmol of P450 (CYP26A1 or CYP26B1) and 10 pmol of P450 reductase. The purified rat reductase was added to CYP26A1 or CYP26B1 microsomes, and allowed to incorporate into the membrane for 10 min at room temperature. […] Compounds were dissolved in methanol or dimethyl sulfoxide, and final solvent amounts in the incubations were kept at 1%. The samples were preincubated for 5 min at 37° C. before the reaction was initiated with NADPH (final concentration 1 mM). Incubation times were 1 minute and 5 minutes for CYP26A1 and CYP26B1 incubations respectively.
The formation of 9-cis-4-OH-RA by CYP26B1 was measured by HPLC as described previously for CYP26A1. Product formation was linear from 1 minute to 8 minutes. […] Five minutes after reactions were initiated with NADPH the reactions were quenched with 5 ml of ethyl acetate, acitretin was added as an internal standard, samples extracted, evaporated to dryness, reconstituted in methanol and analyzed by HPLC as described previously. A standard curve of 9-cis-4-OH-RA was used to quantify product formation by analysis of the peak area of the primary metabolite on an HPLC.
Eighteen compounds were tested as potential inhibitors of CYP26A1 and CYP26B1. The formation of 9-cis-4-OH-RA metabolite was monitored and the percent activity remaining in the presence of the inhibitor in comparison to the solvent only control was quantified. For IC50 determination, 6-8 concentrations of the inhibitor spanning below and above the predicted IC50 were tested, and each concentration was analyzed in triplicate. The IC50 values were determined by nonlinear regression using GraphPad Prism, according to equation 1:
(§2) [formula] in which 100%*(Vi/V) is the percentage of activity remaining at a given inhibitor (I) concentration, (Vi/V)max*100% is the fitted maximum percentage activity remaining, and (Vi/V)min*100% is the minimum percentage activity remaining.
[formula] in which Kd is the affinity constant of the inhibitor, [I] is the concentration of inhibitor, [E] is the concentration of enzyme, and [EI] is the concentration of the enzyme-inhibitor complex.
For data set [2], the target named is T1, CYP26B1. Description: Michaelis-Menten kinetics of RA hydroxylation by CYP26B1.
Experimental: Incubations were performed with 5 pmol of P450 (CYP26A1 or CYP26B1) and 10 pmol of P450 reductase. The purified rat reductase was added to CYP26A1 or CYP26B1 microsomes, and allowed to incorporate into the membrane for 10 min at room temperature. […] Compounds were dissolved in methanol or dimethyl sulfoxide, and final solvent amounts in the incubations were kept at 1%. The samples were preincubated for 5 min at 37° C. before the reaction was initiated with NADPH (final concentration 1 mM). Incubation times were 1 minute and 5 minutes for CYP26A1 and CYP26B1 incubations respectively.
The formation of 9-cis-4-OH-RA by CYP26B1 was measured by HPLC as described previously for CYP26A1. Product formation was linear from 1 minute to 8 minutes. […] Five minutes after reactions were initiated with NADPH the reactions were quenched with 5 ml of ethyl acetate, acitretin was added as an internal standard, samples extracted, evaporated to dryness, reconstituted in methanol and analyzed by HPLC as described previously. A standard curve of 9-cis-4-OH-RA was used to quantify product formation by analysis of the peak area of the primary metabolite on an HPLC. The Michaelis-Menten equation was fit to the data using GraphPad Prism (GraphPad Software Inc., San Diego, Calif.), and the Km and Vmax values were obtained from this fit.
For the next data set, the target named is CYP2C9 (Homo sapiens (Human), UniProt P11712). Description: Inhibition of CYP2C9 in pooled human liver microsomes (diclofenac probe). A general note: Microsomes from liver hold many membrane-bound enzymes, among them those of drug oxidation.
The next data set deals with CYP3A4 (Homo sapiens (Human), UniProt P08684). Description: Inhibition of CYP3A4 in pooled human liver microsomes (midazolam probe). It is filed as in vitro ADME.
Another data set addresses CYP2C8 (Homo sapiens (Human), UniProt P10632). Description: Inhibition of CYP2C8 in pooled human liver microsomes (paclitaxel probe). It is filed as in vitro ADME.
For data set [3], the system named is cytochromes involved in the biosynthetic pathways of testicular, ovarian and adrenal steroids. The following applies: Berth-Jones 2000; Bruynseels 1990; cited from earlier work.
For data set [4] the following is noted: animal models; cited from earlier work.
[5] abbreviates: Table 3, unit inferred, read-out: CYP26A1 (IC50).
Setting [6] is: Table 3, unit inferred, read-out: CYP2681 (CYP26B1, IC50).
Setting [7] is: Table 4, acidic compounds, unit inferred, read-out: CYP26A1 (IC50).
The mark [8] stands for this setting: Table 4, acidic compounds, unit inferred, read-out: CYP26B1 (IC50).
[9] abbreviates: read-out: CYP2C9 IC50 nM, pooled human liver microsomes, diclofenac 5 μM.
Where [10] appears, read: pooled human liver microsomes, paclitaxel 4 μM.

Read-outs that look alike come from different tables or passages of the source. A value given as a limit tells only on which side of the number the result lay.

Sequence of CYP3A4 (P08684 whole entry): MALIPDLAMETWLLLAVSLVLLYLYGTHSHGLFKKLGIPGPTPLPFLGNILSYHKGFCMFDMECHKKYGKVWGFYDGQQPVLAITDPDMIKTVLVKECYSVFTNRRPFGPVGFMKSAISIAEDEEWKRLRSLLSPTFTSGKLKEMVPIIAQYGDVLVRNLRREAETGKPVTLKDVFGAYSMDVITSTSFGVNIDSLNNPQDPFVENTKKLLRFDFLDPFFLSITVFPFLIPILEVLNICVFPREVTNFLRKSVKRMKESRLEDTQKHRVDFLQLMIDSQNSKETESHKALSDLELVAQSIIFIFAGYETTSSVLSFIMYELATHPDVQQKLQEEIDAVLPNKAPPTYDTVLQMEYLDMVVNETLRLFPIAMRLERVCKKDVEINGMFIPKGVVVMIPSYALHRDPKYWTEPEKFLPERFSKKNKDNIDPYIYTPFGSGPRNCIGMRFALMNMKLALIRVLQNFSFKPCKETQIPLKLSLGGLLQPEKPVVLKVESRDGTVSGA
Sequence of CYP2C8 (P10632 whole entry): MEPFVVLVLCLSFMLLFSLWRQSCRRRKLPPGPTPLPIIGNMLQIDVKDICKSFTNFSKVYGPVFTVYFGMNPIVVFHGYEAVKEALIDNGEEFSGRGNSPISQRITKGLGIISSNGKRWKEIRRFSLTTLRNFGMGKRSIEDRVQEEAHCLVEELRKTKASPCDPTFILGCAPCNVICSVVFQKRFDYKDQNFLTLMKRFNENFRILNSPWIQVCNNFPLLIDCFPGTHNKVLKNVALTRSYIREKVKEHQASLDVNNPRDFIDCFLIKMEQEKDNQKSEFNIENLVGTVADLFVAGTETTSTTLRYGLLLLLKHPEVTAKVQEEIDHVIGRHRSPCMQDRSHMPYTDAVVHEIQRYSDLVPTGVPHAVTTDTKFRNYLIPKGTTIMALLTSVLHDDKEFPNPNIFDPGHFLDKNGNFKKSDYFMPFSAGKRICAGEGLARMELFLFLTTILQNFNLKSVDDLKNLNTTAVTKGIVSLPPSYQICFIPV
Sequence of CYP2C9 (P11712 whole entry): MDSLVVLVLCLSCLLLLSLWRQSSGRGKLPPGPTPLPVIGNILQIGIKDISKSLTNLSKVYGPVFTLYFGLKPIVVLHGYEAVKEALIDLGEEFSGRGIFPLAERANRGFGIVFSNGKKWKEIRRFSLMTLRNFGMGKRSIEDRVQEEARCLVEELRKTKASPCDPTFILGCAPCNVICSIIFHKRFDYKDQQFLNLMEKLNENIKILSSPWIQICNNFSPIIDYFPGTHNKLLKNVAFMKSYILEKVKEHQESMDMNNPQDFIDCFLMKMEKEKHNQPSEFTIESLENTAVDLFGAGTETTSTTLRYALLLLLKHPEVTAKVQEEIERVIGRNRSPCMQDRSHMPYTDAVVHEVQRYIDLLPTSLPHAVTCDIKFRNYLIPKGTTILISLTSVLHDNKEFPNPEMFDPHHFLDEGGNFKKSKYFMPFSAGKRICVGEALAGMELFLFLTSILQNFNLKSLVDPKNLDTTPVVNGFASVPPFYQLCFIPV
T1 sequence (Q9NR63 whole entry): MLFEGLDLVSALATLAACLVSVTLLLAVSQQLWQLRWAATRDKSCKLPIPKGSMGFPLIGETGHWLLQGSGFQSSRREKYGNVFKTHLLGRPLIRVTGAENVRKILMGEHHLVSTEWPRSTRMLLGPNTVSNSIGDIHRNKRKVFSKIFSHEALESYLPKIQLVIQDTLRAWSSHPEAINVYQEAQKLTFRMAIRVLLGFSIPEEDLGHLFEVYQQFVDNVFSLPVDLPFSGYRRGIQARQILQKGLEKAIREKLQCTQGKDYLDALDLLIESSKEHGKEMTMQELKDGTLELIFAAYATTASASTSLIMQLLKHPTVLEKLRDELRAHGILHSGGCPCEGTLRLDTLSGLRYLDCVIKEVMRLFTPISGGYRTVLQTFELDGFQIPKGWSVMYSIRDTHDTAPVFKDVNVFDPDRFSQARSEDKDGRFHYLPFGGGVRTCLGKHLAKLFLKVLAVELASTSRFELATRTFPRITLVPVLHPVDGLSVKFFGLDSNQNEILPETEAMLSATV
Sequence of CYP26A1 (O43174 whole entry): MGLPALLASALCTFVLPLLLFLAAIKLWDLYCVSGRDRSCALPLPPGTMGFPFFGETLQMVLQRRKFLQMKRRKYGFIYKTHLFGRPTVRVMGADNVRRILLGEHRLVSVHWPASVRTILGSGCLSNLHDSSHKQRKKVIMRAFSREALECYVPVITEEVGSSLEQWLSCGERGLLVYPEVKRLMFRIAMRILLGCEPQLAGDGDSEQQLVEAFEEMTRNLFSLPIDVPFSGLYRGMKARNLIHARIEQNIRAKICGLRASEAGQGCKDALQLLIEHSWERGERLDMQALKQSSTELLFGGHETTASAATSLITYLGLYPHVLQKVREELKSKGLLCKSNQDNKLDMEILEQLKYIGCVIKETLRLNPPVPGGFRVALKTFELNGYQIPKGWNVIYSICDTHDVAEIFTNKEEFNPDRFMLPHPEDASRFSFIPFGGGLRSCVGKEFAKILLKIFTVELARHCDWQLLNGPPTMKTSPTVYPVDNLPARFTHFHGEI
Experimental for CYP26A1: as §1
The formation of 9-cis-4-OH-RA metabolite was monitored and the percent activity remaining in the presence of the inhibitor in comparison to the solvent only control was quantified. For IC50 determination, 6-8 concentrations of the inhibitor spanning below and above the predicted IC50 were tested, and each concentration was analyzed in triplicate. The IC50 values were determined by nonlinear regression using GraphPad Prism, according to equation 1:
as §2
Experimental for CYP2C8: (§3) Concentrations of organic solvents were kept to <1% (v/v). All incubations were pre-incubated at 37° C. for 5 minutes prior to addition of 1 mM NADPH (final concentration). Incubations were stopped after 5 (CYP3A4) or 15 minutes (CYP2C8 and CYP2C9) with one volume (v/v) of ice-cold acetonitrile containing 0.1 μM tolbutamide as an internal standard. All samples were vortexed and centrifuged prior to LC-MS/MS analysis.
(§4) Detection of 6-hydroxypaclitaxel, 4-hydroxydiclofenac or 1′-hydroxymidazolam was achieved using a Gemini C18 2.0×30 mm 5 column (Phenomenex, Torrance, Calif.). Gradient elution (flow rate=500 μL/min) carried out using a mobile phase system consisting of (A) 5 mM ammonium formate with 0.1% formic acid and (B) acetonitrile with 0.1% formic acid. HPLC flow was diverted from the MS/MS system for the first 20 seconds to remove any non-volatile salts. Generic MS parameters included the curtain gas (10 arbitrary units), CAD gas (medium), ionspray voltage (4500 V), source temperature (450° C.) and ion source gas 1 and gas 2 (40 arbitrary units, each). Interface heaters were kept on for all analytes. Probe substrate mass transitions were identical to previously published methods. Briefly, the LC-MS/MS system utilized was comprised of an Applied Biosystems 4000 Q-Trap equipped with an electrospray ionization source (Applied Biosystems, Foster City, Calif.). The MS/MS system was coupled to two LC-20AD pumps with an in-line CBM-20A controller and DGU-20A5 solvent degasser (shinadzu, Columbia, Md.) and a LEAP CTC HTS PAL autosampler equipped with a dual-solvent self-washing system (CTC Analytics, Carrboro, N.C.). An injection volume of 20 μL was used for all analyses. Standard curves and mass spectrometry data were fit using Analyst (version 1.4; Applied Biosystems, Foster City, Calif.).
Experimental for CYP2C9: as §3, §4
Experimental for CYP3A4: as §3, §4

As to `CC1(C)CCC(C)(C)c2cc(NC(=O)c3ccc(C(=O)O)cc3)ccc21`, at CYP26A1, the CYP26A1/CYP26B1 was 1.8.
On the same count and under the same terms, for `CC1(C)CCC(C)(C)c2cc(C(=O)Nc3ccc(C(=O)O)cc3)ccc21` the value was 2.5; for `C/C(=C\c1ccc(C(=O)O)cc1)c1ccc2c(c1)C(C)(C)CCC2(C)C`, 1.1; for `CC1(C)CCC(C)(C)c2cc(C(=O)COc3ccc(C(=O)O)cc3)ccc21`, 4.
As for `CC1(C)CCC(C)(C)c2cc(C(O)COc3ccc(C(=O)O)cc3)ccc21` (stereo not shown), the CYP26A1/CYP26B1 at CYP26A1 came to 2.
Consider `CC1(C)CCC(C)(C)c2cc(/C(COc3ccc(C(=O)O)cc3)=N\O)ccc21`, for which the CYP26A1/CYP26B1 at CYP26A1 is recorded as 3.
On the same count and under the same terms, the value for `CC1(C)C(=O)C(C)(C)c2cc(C(=O)Nc3ccc(C(=O)O)cc3)ccc21` was 0.6; that for `CC1(C)CCSc2ccc(C#Cc3ccc(C(=O)O)cn3)cc21` was 47.
Still for that read-out and setting: the value for `CC1(C)CCC(C)(C)c2cc(C#Cc3ccc(C(=O)O)cc3)ccc21` was 9.
As for `CCOC(=O)c1ccc(C#Cc2ccc3c(c2)C(C)(C)CCS3)nc1`, the inhibition (as a rule, the share of the control response that was lost under treatment) at 100 µM on CYP26A1 was 15%.
Still for that read-out and setting: for `COC(=O)c1ccc(OCC(=O)c2ccc3c(c2)C(C)(C)CCC3(C)C)cc1` the value was 15%.
Turning to `COC(=O)c1ccc(OC/C(=N/O)c2ccc3c(c2)C(C)(C)CCC3(C)C)cc1`, the CYP26A1/CYP26B1 at CYP26A1 is 8.
With `COC(=O)c1ccc(OC/C(=N\O)c2ccc3c(c2)C(C)(C)CCC3(C)C)cc1`, on CYP26A1, the CYP26A1/CYP26B1 is given as 7.
Turning to `C=C(c1ccc(C(=O)O)cc1)c1cc2c(cc1C)C(C)(C)CCC2(C)C`, the IC50 is 12300 nM at CYP26A1 (setting [5]) and 4000 nM on CYP26B1 [1] (setting [6]).
For `CC1(C)CCC(C)(C)c2cc(C3(c4ccc(C(=O)O)cc4)SCCS3)ccc21`, the IC50 on CYP26A1 (setting [7]) was determined as 1280 nM; on CYP26B1 [1] (setting [8]), 1090 nM.
For `CC1(C)CCC(C)(C)c2cc(C3(c4ccc5cc(C(=O)O)ccc5c4)OCCO3)ccc21` the same measures were 109 nM and 1030 nM.
Consider `COc1ccc(-c2ccc(CCC(=O)O)cc2)cc1C12CC3CC(CC(C3)C1)C2`, for which the IC50 on CYP26B1 [1] (Table 5, read-out: CYP26B1) was 516 nM.
For `O=C(O)CCc1ccc(-c2ccc(O)c(C34CC5CC(CC(C5)C3)C4)c2)cc1`, the IC50 came out at 314 nM on CYP26A1 (Table 5, read-out: CYP26A1) and 302 nM on CYP26B1 [1] (Table 5, read-out: CYP26B1).
For `COc1ccc(-c2ccc(/C=C/C(=O)O)cc2)cc1C12CC3CC(CC(C3)C1)C2` the same measures were > 25000 nM and > 25000 nM.
For `COc1ccc(Nc2ccc(/C=C/C(=O)O)cc2)cc1C12CC3CC(CC(C3)C1)C2`, in that order: 729 nM and 87 nM.
For `O=C(O)/C=C/c1ccc(Nc2ccc(O)c(C34CC5CC(CC(C5)C3)C4)c2)cc1`, in that order: 232 nM and 95 nM.
Turning to `COc1ccc(Nc2ccc(CCC(=O)O)cc2)cc1C12CC3CC(CC(C3)C1)C2`, the IC50 on CYP26A1 (Table 5, read-out: CYP26A1) turned out to be 51 nM; at CYP26B1 [1] (Table 5, read-out: CYP26B1) it was 51 nM.
In the case of `O=C(O)CCc1ccc(Nc2ccc(O)c(C34CC5CC(CC(C5)C3)C4)c2)cc1`, the IC50 was found to be 1750 nM on CYP26A1 (Table 5, read-out: CYP26A1) and 108 nM at CYP26B1 [1] (Table 5, read-out: CYP26B1).
Take `CC1(C)CCC(C)(C)c2cc(C3(c4ccc(CCC(=O)O)cc4)OCCO3)ccc21`: the IC50 came out at 340 nM on CYP26A1 (Table 5, read-out: CYP26A1) and 14500 nM on CYP26B1 [1] (Table 5, read-out: CYP26B1).
For `CC1(C)CCC(C)(C)c2cc(C3(c4ccc(/C=C/C(=O)O)cc4)SCCS3)ccc21`, in that order: 6 nM and 4400 nM.
For the compound `CC1(C)CCC(C)(C)c2cc(Cc3ccc(CCC(=O)O)cc3)ccc21`, the IC50 on CYP26A1 (Table 5, read-out: CYP26A1) was > 10000 nM; on CYP26B1 [1] (Table 5, read-out: CYP26B1), 1660 nM.
For `CC1(C)CCC(C)(C)c2cc(C3(c4ccc(/C=C/C(=O)O)cc4)OCCO3)ccc21` the same measures were 239 nM and > 10000 nM.
Take `CC1=C(/C=C/C(C)=C\C=C\C(C)=C\C(=O)O)C(C)(C)CCC1` [Example 9-cis-RA, 9-cis-RA]: at CYP26B1 [2], the “Vmax for 9-cis-4-OH-RA formation by CYP26B1” value came to 3.6 pmol/min/pmol P450 and the “fold greater Km than atRA for CYP26B1” value came to 50 fold. The compound also showed an intrinsic clearance on CYP26B1 [2] (from Km and Vmax) of 6.5 µL/min. Besides, the Km (as a rule, the concentration of substrate that gives half-maximal velocity) at CYP26B1 [2] (read-out: Km for 9-cis-4-OH-RA formation by CYP26B1, substrate 9-cis-RA 50-1000 nM, 5 min) is 0.555 µM.
Consider `CC(C(c1ccc(Nc2nc3ccccc3s2)cc1)n1ccnc1)N(C)C` (stereo not shown) [Example R116010, R116010], for which the IC50 on CYP2C9 was > 1000 nM; on CYP2C9 (setting [9]), 5760 nM; on CYP2C8 (bound stated), > 1000 nM; against CYP2C8 (setting [10]) it was 1760 nM. Also, the “Inhibition of CYP3A4 (in words)” value at CYP3A4 was “potent CYP3A4 inhibitors”.
As for `CC1=C(/C=C/C(C)=C/C=C/C(C)=C/C(=O)O)C(C)(C)CCC1` [atRA, all-trans-retinoic acid], at CYP26B1 [2] (read-out: Km of atRA for CYP26B1), the Km is 0.019 µM.
For the compound `CC1(C)CCC(C)(C)c2cc(C3(c4ccc(C(=O)O)cc4)OCCO3)ccc21` [drawing 145], the values for the IC50 at CYP26A1 (setting [5]) and at CYP26B1 [1] (setting [6]) were 3300 nM and 14200 nM, respectively.
For the compound `CC1(C)CCC(C)(C)c2cc(C3(c4ccc5cc(C(=O)O)ccc5c4)SCCS3)ccc21` [drawing 146], the IC50 amounted to 61 nM on CYP26A1 (setting [5]) and 1030 nM on CYP26B1 [1] (setting [6]).
Regarding `CC1(C)CCC(C)(C)c2cc(C3(c4ccc(C(=O)O)cc4)OCCO3)ccc21` [drawing 148], the IC50 on CYP26A1 (setting [7]) worked out at 7780 nM; on CYP26B1 [1] (setting [8]), 12600 nM.
As for `CC1(C)CCC(C)(C)c2cc(C3(c4ccc5cc(C(=O)O)ccc5c4)SCCS3)ccc21` [drawing 152], at CYP26A1 (setting [7]), the IC50 turned out to be 61 nM.
As to `Clc1cccc(C(c2ccc3[nH]cnc3c2)n2ccnc2)c1` (stereo not shown) [liarozole], the “Inhibition of CYP2C9 (in words)” value on CYP2C9 (pooled human liver microsomes) is “weak inhibitor”. Also, the IC50 was 1630 nM at CYP2C9 (setting [9]); 18 nM at CYP26B1 [1] (Table 5, read-out: CYP26B1); 480 nM against CYP2C8 (setting [10]). Also, in data set [3], the “inhibition of other cytochromes of steroid biosynthesis” value was “also inhibits other cytochromes involved in the biosynthetic pathways of testicular, ovarian and adrenal steroids”. Further, the “Inhibition of CYP3A4 (in words)” value on CYP3A4 is reported as “weak inhibitor”. The “effect on concentration of atRA in vivo” value in data set [4] is given as “increase the concentration of atRA in vivo”. The “Inhibition of CYP2C8 (in words)” value at CYP2C8 (pooled human liver microsomes) is on record as “inhibited CYP2C8 potently”.
Turning to `CCC(CC)[C@H](c1ccc(Nc2nc3ccccc3s2)cc1)n1cncn1` [talarozole, (R)—N-[4-[2-ethyl-1-(1H-1,2,4-triazol-1-yl)butyl]phenyl]-2-benzo-thiazolamine], the “Inhibition of CYP2C9 (in words)” value at CYP2C9 (pooled human liver microsomes) is recorded as “nanomolar affinity”. Further, the IC50 on CYP2C9 (setting [9]) stood at 680 nM; on CYP26A1 (Table 5, read-out: CYP26A1) it was 5.1 nM; at CYP26B1 [1] (Table 5, read-out: CYP26B1), 0.46 nM; on CYP2C8 (setting [10]), 220 nM. For the same compound, the “Inhibition of CYP3A4 (in words)” value on CYP3A4 is listed as “nanomolar affinity”. Besides, the “effect on concentration of atRA in vivo” value in data set [4] is on record as “increase the concentration of atRA in vivo”. For the same compound, on CYP2C8 (pooled human liver microsomes), the “Inhibition of CYP2C8 (in words)” value was “nanomolar affinity”.
